This note sets out measurements from patent US7456197B2, “Pyridinium cationic lipids as gene transfer agents” (The Texas A&M University System, priority 2003, dated 2008).

Assay [1] has as its system glioma SWB-95. The experiment in a line: Luciferase (pGL3) transfection efficiency of lipoplexes, SWB-95. In kind it is cell-based. The following applies: optimized lipoplexes, Chol 1:1, FIG. 7. An excerpt:
It is well known that specific cell types and cell lines may vary in their ability to be transfected. In addition to the NCI-H23 lung cancer cell line, we therefore tested our optimized formulation of 5AMyr/Chol 1:1 versus DOTAP/Chol 1:1 as reference on four other cell lines from tumors representing cancers of great importance to human health, as well as different tissues of origin: breast carcinomas MCF-7, MDA-Mb231, prostate carcinoma DU-145 and glioma SWB-95 (FIG. 7).
Dioleoylphosphatidylethanolamine (DOPE), cholesterol (CHOL), N-(2,3-dioleoyloxypropyl)-N,N,N-trimethylammonium chloride (DOTAP) were commercial products. The purity of the lipids was checked by thin layer chromatography and also by differential scanning calorimetry (DSC), which was also used for determining the critical temperature Tc. For the preparation of the liposomes a protocol optimized for this type of compounds was adopted as follows. The cationic lipid (with or without helper lipid) was dissolved in chloroform/methanol (2/1, v/v) to reach a final concentration of 1 mM for the charged species. […]
For the luciferase assay, 20 μL of cell lysate was aliquoted in a test tube and assessed directly using a luciferase assay kit from Promega by means of a luminometer.
The protein content was quantified using a bicinchoninic acid (BCA) assay. […]

Assay [2] concerns lung cancer cell line NCI-H23. As to the kind of experiment: Luciferase (pGL3) transfection efficiency of lipoplexes, NCI-H23. In kind it is cell-based, human. The method, then:
The three series of cationic lipids newly synthesized were assessed for their transfection efficiency in vitro, using the experimental conditions optimized in a previous study.^23 Essentially the cationic lipids were mixed with cholesterol at a 1:1 molar ratio, dissolved in chloroform/methanol and dried under vacuum to generate a lipid film. The dried lipid film was hydrated with sterile phosphate buffer isotonic saline with pH=7.4 (PBS) and sonicated to yield cationic liposomes. The resulting liposomal solution was allowed to react with a DNA solution to form the final cationic lipid-DNA complexes (lipoplexes), which were assessed for transfection efficiency using different cell cultures. We used a pGL3 plasmid (Promega, Madison, Wisc.), encoding a firefly luciferase gene under the control of the constitutively active SV40 promoter as the reporter for the transfection efficiency. An optimal^23 electrostatic charge ratio cationic lipid/DNA of 2:1 was used in all preparations. […] The ability of these new cationic lipids to generate relatively small cationic liposomes could be attributed to the relatively large curvature radius induced in the bilayer by the bulky pyridinium cationic head.
Dioleoylphosphatidylethanolamine (DOPE), cholesterol (CHOL), N-(2,3-dioleoyloxypropyl)-N,N,N-trimethylammonium chloride (DOTAP) were commercial products. The purity of the lipids was checked by thin layer chromatography and also by differential scanning calorimetry (DSC), which was also used for determining the critical temperature Tc. For the preparation of the liposomes a protocol optimized for this type of compounds was adopted as follows. The cationic lipid (with or without helper lipid) was dissolved in chloroform/methanol (2/1, v/v) to reach a final concentration of 1 mM for the charged species. From this stock solution 50 μL were aliquoted in a 1 mL tube and the solvent was evaporated in a SpeedVac evaporator, under vacuum, for 1 h. The dried lipid film was prepared by removing the traces of organic solvent in a dessicator, over Drierite®, under vacuum, overnight. The film was hydrated with 500 μL sterile phosphate buffer saline (PBS) the tube was purged with sterile N2, and vortexed for 1 minute. The liposomes were generated by sonicating the tube in a water bath sonicator for 5-30 minutes at 62° C. and at 37° C. for DOTAP. After sonication the preparations were allowed to reach room temperature.
For generating the lipoplexes, 1.4-2.8 μL plasmid DNA solution (0.5 μg/μL) was diluted with 100 μL Optimem®. A liposome solution was prepared separately by diluting the initial liposomal stock solution (0.1 mM in cationic lipid) with Optimem® in specified proportions, to reach a final volume of 50 μL. Over this liposome solution 50 μL of the DNA stock solution was added, the tube was incubated for 30 minutes at room temperature and then the content diluted with 500 μL Optimem® (final volume of the lipoplex stock solution: 600 μL).
The lipoplexes was tested for their transfection properties over five different cancer cell lines—breast carcinoma (MCF-7 and MDA-Mb231), lung carcinoma (NCI-H23), prostate carcinoma (DU-145) and brain carcinoma (SWB-95). The cells were maintained in 10% fetal bovine serum (FBS)—enriched RPMI 1640 at 37° C. and 5% CO2 in a humidified atmosphere. Twenty-four hours prior to transfection the cells were transferred in 96-wells microtiter plate at a density of 20,000 cells/well. Each well received 100 μL medium and the plate was incubated in the same conditions. All experiments were done in triplicate or quadruplicate.
Immediately before transfection the medium was removed from each well and the cells were briefly washed with 200 μL sterile PBS. After removal of the PBS each well received 100 μL lipoplex stock solution and the plate was placed in the incubator for 1 hour. Then, 100 μL medium was added to each well and the plate was incubated for 24 hours. […]

Entries after “also recorded” stand apart in the source; their conditions may differ.

In the case of `CCCCCCCCCCCCCC(=O)OCC(COC(=O)CCCCCCCCCCCCC)[n+]1c(C)cc(C)cc1C.F[P-](F)(F)(F)(F)F` [Lipid 5AMyr, 1-(1,3-dimyristoyloxypropane-2-yl)-2,4,6-trimethylpyridinium hexafluorophosphate], the “transfection efficiency (luciferase activity normalized for protein)” value is 10934 RLU/μg of protein in assay [1] and 576000 RLU/μg of protein in assay [2] (optimized lipoplexes, Chol 1:1, FIG. 7 caption (from FIG. 4)). In addition, in assay [2] (5Myr/Chol 1:1, PBS, sonicated two sequences of 15 minutes, FIG. 5), the “transfection efficiency, counterion study” value is recorded as “surpassed DOTAP in transfection efficiency”. Besides, the “expression of luciferase relative to DOTAP/Chol 1:1” value in assay [2] (cholesterol 1:1) is “about twice more effective than DOTAP”. Moreover, the “transfection efficiency (in words)” value in assay [2] (cholesterol as helper lipid 1:1, charge ratio lipid/DNA 2:1) was “highest transfection peaks; also recorded: the most effective”.
